According to patent US7345091B2, “Carotenoid ether analogs or derivatives for the inhibition and amelioration of disease” (Cardax Pharmaceuticals, Inc., priority 2002, dated 2008):
Structures can show the parent of a compound that is named as a salt.

Key:
[1] = tested on: connexin 43 protein expression; experiment: Induction of connexin 43 protein expression (Western blot, 96 hours); type: cell-based, mouse; details: 96 hours
Method: In brief, mouse embryonic fibroblast CH3/10T^1/2 cells were treated with the following formulations in a 4 mL cell culture system with media containing 2% calf serum: • 1. TTNPB [p-(E)-2-(5,6,7,8-tetrahydro-5,5,8,8-tetramethyl-2-napthyl) propenyl benzoic acid] 10^−8 M in acetone [positive control for connexin 43 upregulation (4 μL in 4 mL] • 2. Disodium salt disuccinate astaxanthin derivative XVI/H2O at 10^−5 M (40 μl in 4 mL) • 3. Disodium salt disuccinate astaxanthin derivative XVI/H2O at 10^−6 M (4 μl in 4 mL) • 4. Disodium salt disuccinate astaxanthin derivative XVI/H2O at 10^−7 M (1:10 dilution and 4 μl in 4 mL) • 5. Disodium salt disuccinate astaxanthin derivative XVI H2O/ethanol [EtOH] formulation at 10^-5 M (40 μl in 4 mL) • 6. Disodium salt disuccinate astaxanthin derivative XVI H2O/EtOH formulation at 10^−6 M (4 μl in 4 mL) • 7. Sterile H2O control (40 μl in 4 mL) • 8. Sterile H2O/EtOH control (20 μL EtOH, 20 μL H2O in 4 mL) • 9. Media control (4 mL)
Cells were harvested after 96 hours incubation with test compounds and control solutions. All media solutions were identical in color, however after treatment with the disodium salt disuccinate astaxanthin derivative XVI at both 10^−5 dilutions, the color subjectively changed to an orange-red color. Cells treated with TTNPB appeared striated with light microscopy, evidence of differentiation to myocytes, an expected result in this cell culture system. After harvest and pelleting of cells, tubes containing both 10^−5 disodium salt disuccinate astaxanthin derivative XVI solutions were bright red; both 10^−6 dilution tubes were a pink color. As documented previously for other colored carotenoids, this was subjective evidence for cellular uptake of the test compounds.
Cells were then lysed, and 50 μg of each protein was electrophoresed on a 10% polyacrylamide gel. The gel was then transferred to a nitrocellulose filter. Total protein was assayed with Coomassie blue staining (FIG. 29; lanes 6, 7, and 9 were smeared secondary to gel transfer, and were not included in the quantitative comparison [FIG. 31)]. […]

[2] = Liver accumulation of free astaxanthin after single oral dose; type: in vivo, male C57BL/6 mice
Method: Free astaxanthin concentration was also determined, at the same time points as for plasma samples, in liver. Livers were removed from each animal in the pharmacokinetic study after sacrifice, and snap frozen in liquid nitrogen. Liver tissue was prepared for HPLC analysis as described (Jewell, 1999). Therefore, simultaneous examination of liver accumulation of free astaxanthin was performed at the same time points as the plasma analyses. Up to 300 mg of liver from each animal was snap frozen in liquid nitrogen. Tissue homogenization and extraction were performed with a mixture of chloroform/methanol/water, according to the methods of Jewell (1999). Non-esterified, free astaxanthin accumulation in liver was then evaluated by HPLC as described above for plasma samples.

[3] = tested on: male New Zealand white rabbits; experiment: Experimental infarct size after parenteral administration; type: in vivo, rabbit
Excerpt: The influence of parenteral administration of the disodium disuccinate astaxanthin derivative (XVI) on induced infarct size and induced levels of circulating C-reactive protein (CRP) in rabbits was investigated using the methods of Barrett et al. (2002) with slight modifications. The purpose of the current study was to investigate the ability of the disodium disuccinate astaxanthin derivative (XVI) to reduce inflammation as measured by CRP in the setting of experimental myocardial ischemia-reperfusion injury in the rabbit heart. […] Therefore, reduction of circulating CRP levels, together with the reduction(s) in infarct size previously noted with Cardax™ in rodents, would form a powerful anti-inflammatory therapeutic modality in the acute coronary syndrome setting.
In brief, male New Zealand white rabbits (2.25-2.5 kg) were used for the study. The acute phase inflammatory response was induced by subcutaneous injection of four aliquots (0.5 mL each) of 1% croton oil in corn oil beginning on the second day of pre-treatment with Cardax™. […]
At the completion of the reperfusion phase of the protocol, the hearts were removed and cannulated by the aorta on the Langendorff perfusion apparatus. […] Total area at risk was expressed as a percentage of the left ventricle. Infarct size was then expressed as a percentage of area at risk.

CC1=C(/C=C/C(C)=C/C=C/C(C)=C/C=C/C=C(C)/C=C/C=C(C)/C=C/C2=C(C)C(=O)C(OC(=O)CCC(=O)O)CC2(C)C)C(C)(C)CC(OC(=O)CCC(=O)O)C1=O (racemic) [XVI, Disodium Salt of the Disuccinic Acid Ester of Astaxanthin]
induction of connexin 43 protein expression ([1]; water 10^-5 to 10^-7 M and EtOH/H2O formulations, vs water and ethanol/water controls): induced connexin 43 protein expression | connexin 43 induction level compared with TTNPB positive control ([1]; in water at concentrations greater than 10^-7 and in ethanol/water at 10^-5): higher inductions levels than the positive TTNPB control | Oral clearance ([2]; Liver, free astaxanthin, single 500 mg/kg oral dose): 15.856 L/h | liver vs plasma levels of free astaxanthin at each sampling interval ([2]; single 500 mg/kg oral gavage in emulsion): equal or greater to that in plasma | reductions in infarct size ([3]; 50 mg/kg IV once per day for 4 days, 30 min occlusion / 180 min reperfusion): approximately 55.4% | increase in infarct size reduction in rabbit vs rodents ([3]; same dose and identical pre-treatment schedule): 38%
